Results as given in BindingDB's records for doi:10.1128/AAC.00386-06 (University of Connecticut At Storrs, 2006).

Molecular target: T1, Dihydrofolate reductase (Bacillus cereus (strain ATCC 14579 / DSM 31 / CCUG 7414 / JCM 2152 / NBRC 15305 / NCIMB 9373 / NCTC 2599 / NRRL B-3711), UniProt Q81E04)
T1 sequence (Q81E04 whole entry): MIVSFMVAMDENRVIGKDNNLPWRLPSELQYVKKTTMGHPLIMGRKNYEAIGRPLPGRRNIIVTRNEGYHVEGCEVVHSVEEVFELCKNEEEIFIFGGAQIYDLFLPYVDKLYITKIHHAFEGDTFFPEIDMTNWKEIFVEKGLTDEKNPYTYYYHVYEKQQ
Assay: In Vitro Inhibition Assay
Conditions: pH 7; 25 °C
Method: Enzyme activity assays were performed by monitoring the rate of enzyme-dependent NADPH consumption at an absorbance of 340 nm over a period of several minutes. After an incubation period of 5 min in the presence or absence of the inhibitor, the reaction was initiated with the addition of dihydrofolate. The reactions were performed a minimum of four times to determine the average rate and 50% inhibitory concentration values.

SMILES	IC50 [µM]
COc1ccc(C#CCCCCC(=O)O)cc1Cc1cnc(N)nc1N	69.3
COc1ccc(CCCCCC(=O)O)cc1Cc1cnc(N)nc1N	150
COc1ccc(C#CCCCCC(=O)O)cc1Cc1cnc2nc(N)nc(N)c2c1C [2,4-diamino-5-deazapteridine, 2]	0.27
COc1ccc(OCCCCC(=O)O)cc1Cc1cnc2nc(N)nc(N)c2c1C [2,4-diamino-5-deazapteridine, 5]	1.67
COc1ccc(OCCCCCC(=O)O)cc1Cc1cnc2nc(N)nc(N)c2c1C [2,4-diamino-5-deazapteridine, 6]	0.51
CCOC(=O)CCCOc1ccc(OC)c(Cc2cnc3nc(N)nc(N)c3c2C)c1 [2,4-diamino-5-deazapteridine, 7]	0.88
Nc1nc(N)c2c(ccc3c4ccccc4ccc32)n1 [4,6-diazatetracyclo[8.8.0.0^{2,7}.0^{11,16}]octadeca-1(10),2,4,6,8,11(16),12,14,17-nonaene-3,5-diamine]	> 1000
COc1ccc(OCCCC(=O)O)cc1Cc1cnc2nc(N)nc(N)c2c1C [4-[3-({2,4-diamino-5-methylpyrido[2,3-d]pyrimidin-6-yl}methyl)-4-methoxyphenoxy]butanoic acid]	0.6
COc1cc(CCc2c[nH]c3nc(N)nc(N)c23)cc(OC)c1OC [5-[2-(3,4,5-trimethoxyphenyl)ethyl]-7H-pyrrolo[2,3-d]pyrimidine-2,4-diamine]	252
COc1ccc(I)cc1Cc1cnc(N)nc1N [5-[(5-iodo-2-methoxyphenyl)methyl]pyrimidine-2,4-diamine]	37.3
COc1ccc(C#CCCCC(=O)O)cc1Cc1cnc2nc(N)nc(N)c2c1C [6-[3-({2,4-diamino-5-methylpyrido[2,3-d]pyrimidin-6-yl}methyl)-4-methoxyphenyl]hex-5-ynoic acid]	1.9
Nc1nc(N)c2nc(CN3c4ccccc4C=Cc4ccccc43)cnc2n1 [6-{2-azatricyclo[9.4.0.0^{3,8}]pentadeca-1(11),3(8),4,6,9,12,14-heptaen-2-ylmethyl}pteridine-2,4-diamine]	16.7
COc1cc(NCc2ccc3nc(N)nc(N)c3c2)c(Br)c(OC)c1OC [6-{[(2-bromo-3,4,5-trimethoxyphenyl)amino]methyl}quinazoline-2,4-diamine]	1.1
Cc1nc2nc(N)nc(N)c2nc1CN(C)c1ccc2c(Cl)cc(Cl)cc2c1 [6-{[(5,7-dichloronaphthalen-2-yl)(methyl)amino]methyl}-7-methylpteridine-2,4-diamine]	> 1000
CN(Cc1cnc2nc(N)nc(N)c2n1)c1ccc2c(Cl)cc(Cl)cc2c1 [6-{[(5,7-dichloronaphthalen-2-yl)(methyl)amino]methyl}pteridine-2,4-diamine]	17.6
Nc1nc(N)c2nc(CNc3ccc4c(Cl)cc(Cl)cc4c3)cnc2n1 [6-{[(5,7-dichloronaphthalen-2-yl)amino]methyl}pteridine-2,4-diamine]	7.58
Nc1nc(N)c2nc(CNc3ccc4cc(Cl)c(Cl)cc4c3)cnc2n1 [6-{[(6,7-dichloronaphthalen-2-yl)amino]methyl}pteridine-2,4-diamine]	4.82
CN(Cc1cnc2nc(N)nc(N)c2n1)c1ccc2cc(Cl)ccc2c1 [6-{[(6-chloronaphthalen-2-yl)(methyl)amino]methyl}pteridine-2,4-diamine]	2.26
Nc1nc(N)c2nc(CNc3ccc4cc(Cl)ccc4c3)cnc2n1 [6-{[(6-chloronaphthalen-2-yl)amino]methyl}pteridine-2,4-diamine]	6.32
CCOC(=O)CCCCOc1ccc(OC)c(Cc2cnc3nc(N)nc(N)c3c2C)c1 [ethyl 5-[3-({2,4-diamino-5-methylpyrido[2,3-d]pyrimidin-6-yl}methyl)-4-methoxyphenoxy]pentanoate]	0.35
CCOC(=O)CCCCCOc1ccc(OC)c(Cc2cnc3nc(N)nc(N)c3c2C)c1 [ethyl 6-[3-({2,4-diamino-5-methylpyrido[2,3-d]pyrimidin-6-yl}methyl)-4-methoxyphenoxy]hexanoate]	1.85
